Assays:
DNA-PK = DNA-PK (Homo sapiens, UniProt P78527); test: Kinase inhibitory profile; type: biochemical; details: Class IV PI3Ks; 10-point concentration assays
ERBB2 = ERBB2 (Homo sapiens, UniProt P04626); test: Kinase inhibitory profile; type: biochemical; details: Other Clinically-relevant Kinases; 10-point concentration assays
MOLT-4 = test: NCI-60 panel cell growth screen; type: cell-based, human; details: MOLT-4 (Leukemia)
HOP-62 = test: NCI-60 panel cell growth screen; type: cell-based, human; details: HOP-62 (NSCLC)
NCI-H332M = test: NCI-60 panel cell growth screen; type: cell-based, human; details: NCI-H332M (NSCLC)
HCT-116 = test: NCI-60 panel cell growth screen; type: cell-based, human; details: HCT-116 (Colon cancer)
HT29 = test: NCI-60 panel cell growth screen; type: cell-based, human; details: HT29 (Colon cancer)
SF-539 = test: NCI-60 panel cell growth screen; type: cell-based, human; details: SF-539 (CNS Cancer)
SNB-75 = test: NCI-60 panel cell growth screen; type: cell-based, human; details: SNB-75 (CNS Cancer)
BMSCs = test: XTT viability of BMSCs; type: cell-based; details: 72 h, XTT assay
IL-6 = IL-6 ELISA, MM cells co-cultured with BMSCs; type: cell-based, human
[1] = read-out: LC50 (the source's name)

N-[4-hydroxy-3-(8-quinolinylthio)-1-naphthyl]benzenesulfonamide [DT97]
Inhibitory profile (kinase inhibition) (DNA-PK): + | Inhibitory profile (kinase inhibition) (ERBB2): + | GI50 (MOLT-4): 546 nM | LC50 (MOLT-4): > 100000 nM | TGI (MOLT-4): 5.53E-6 | Percent Growth (MOLT-4; log concentration −4.0): −28% | Percent Growth (MOLT-4; log concentration −5.0): 9% | Percent Growth (MOLT-4; log concentration −6.0): 27% | Percent Growth (MOLT-4; log concentration −7.0): 116% | Percent Growth (MOLT-4; log concentration −8.0): 111% | GI50 (HOP-62): 1010 nM | TGI (HOP-62): 2.54E-5 | Percent Growth (HOP-62; log concentration −4.0): −37% | Percent Growth (HOP-62; log concentration −5.0): 26% | Percent Growth (HOP-62; log concentration −6.0): 50% | Percent Growth (HOP-62; log concentration −7.0): 95% | Percent Growth (HOP-62; log concentration −8.0): 93% | GI50 (NCI-H332M): 2310 nM | LC50 (NCI-H332M): 39400 nM | TGI (NCI-H332M): 1.37E-5 | Percent Growth (NCI-H332M; log concentration −4.0): −94% | Percent Growth (NCI-H332M; log concentration −5.0): 15% | Percent Growth (NCI-H332M; log concentration −6.0): 70% | Percent Growth (NCI-H332M; log concentration −7.0): 94% | Percent Growth (NCI-H332M; log concentration −8.0): 94% | GI50 (HCT-116): 555 nM | TGI (HCT-116): 2.80E-6 | Percent Growth (HCT-116; log concentration −4.0): −92% | Percent Growth (HCT-116; log concentration −5.0): −43% | Percent Growth (HCT-116; log concentration −6.0): 34% | Percent Growth (HCT-116; log concentration −7.0): 95% | Percent Growth (HCT-116; log concentration −8.0): 98% | CC50 (HCT-116; [1]): 14100 nM | GI50 (HT29): 2420 nM | TGI (HT29): 1.44E-5 | Percent Growth (HT29; log concentration −4.0): −44% | Percent Growth (HT29; log concentration −5.0): 8% | Percent Growth (HT29; log concentration −6.0): 76% | Percent Growth (HT29; log concentration −7.0): 108% | Percent Growth (HT29; log concentration −8.0): 103% | CC50 (HT29; [1]): > 100000 nM | GI50 (SF-539): 957 nM | TGI (SF-539): 5.13E-6 | Percent Growth (SF-539; log concentration −4.0): −86% | Percent Growth (SF-539; log concentration −5.0): −20% | Percent Growth (SF-539; log concentration −6.0): 49% | Percent Growth (SF-539; log concentration −7.0): 98% | Percent Growth (SF-539; log concentration −8.0): 93% | CC50 (SF-539; [1]): 28500 nM | GI50 (SNB-75): 3230 nM | TGI (SNB-75): 1.69E-5 | Percent Growth (SNB-75; log concentration −4.0): −100% | Percent Growth (SNB-75; log concentration −5.0): 29% | Percent Growth (SNB-75; log concentration −6.0): 75% | Percent Growth (SNB-75; log concentration −7.0): 73% | Percent Growth (SNB-75; log concentration −8.0): 76% | CC50 (SNB-75; [1]): 41200 nM | viability (BMSCs): did not significantly reduce the viability | production of Il-6 (IL-6): induction was inhibited
